Results: publication PMC5766233, “Ternary copper(II) complex: NCI60 screening, toxicity studies, and evaluation of efficacy in xenograft models of nasopharyngeal carcinoma” (PLoS ONE, 2018)

System: HK1 xenograft
Assay: In vivo efficacy in HK1 xenograft model
Set-up: species or system NOD scid gamma female mice
Method: Recognizing the relative lack of treatment options for advanced NPC compared to other major cancers in Malaysia and based on our previous finding of the anticancer activity against NPC cells, we proceeded to validate the anticancer properties of the Cu(II) complex in vivo using NPC xenograft models. To test the compound in vivo in the preclinical models, two pilot studies were carried out using the Cu(II) complex. First, the effects of the Cu(II) complex were investigated on HK1 xenograft bearing mice at three different dosage regimens (4, 6 and 8 mg/kg). […] Even though treatment with Cu(II) complex at 8 mg/kg every other day up to 3 doses was effective, 2 out of 7 mice were found deadand the experiment had to be terminated.
2.0 x 10^6 HK1 or C666-1-GFP-Luc2 cells in 100 μl RPMI media mixed with matrigel (BD Matrigel Basement Membrane Matrix; BD Biosciences, Bedford, MA, USA) was inoculated subcutaneously into the right lower flank of the NSG mice. Tumor growth was monitored and measured every other day using a digital caliper (Mitutoyo America Corporation, Aurora, Illinois, USA) until they reached 100–250 mm^3. Then, the mice were randomly assigned into treatment groups. The mice bearing HK1 xenograft tumor were divided into 3 treatment groups and a control (normal saline) group. The first batch received normal saline (one injection daily for 5 days), 6 mg/kg (one injection daily for 5 days) and 8 mg/kg (one injection every other day for 3 doses) of Cu(II) complex while the second batch received normal saline (one injection daily for 4 days), 4 mg/kg (one injection daily for 4 days), 6 mg/kg (one injection daily for 4 days) and 8 mg/kg (one injection every other day for 2 doses) of Cu(II) complex via intraperitoneal route.

SMILES: CC(C)(N)C(=O)[O-].O.O=[N+]([O-])[O-].[Cu+2].c1cnc2c(c1)ccc1cccnc12 [Cu(II) complex, [Cu(phen)(C-dmg)(H2O)]NO3]
- mice found dead (8 mg/kg every other day up to 3 doses): 2 out of 7
- tumor growth (4, 6 and 8 mg/kg ip): significantly inhibited the growth of HK1 tumor
- tolerability / body weight (4 and 6 mg/kg dose regimens): well tolerated with no significant body weight loss
- Histopathological examination of heart, liver, kidney and lung (all the groups): did not show any remarkable changes
- weight of vital organs (all treatment groups vs control): not significantly affected
